Series [1] has as its system A/Victoria/3/75 (H3N2), M2 WT. The experiment in a line: microbe, parasite or virus in culture. To be noted: read-out: EC50 A/Victoria/3/75 (H3N2). Format: cell-based.
The subject of series [2] is A2/Taiwan/1/64 (H2N2), M2 WT. The experiment in a line: microbe, parasite or virus in culture. Particulars: read-out: EC50 A2/Taiwan/1/64 (H2N2). Type of series: cell-based.

Structures are written as SMILES. Counter-ions that a name gives are not always drawn. Like-named read-outs stand apart in the source and are kept apart here. Bounds are passed on as bounds.

A word on the melting point: it is the temperature, or range, at which the solid turns liquid. In the case of `CCCCCCC1(N)C2CC3CC(C2)CC1C3` (stereo not drawn) (as salt: fumarate) [Compound 101, 2-n-hexyl-tricyclo[3.3.1.1^3,7]decan-2-amine], the melting point was determined as 225 °C.
The same measure, in the same setting: the result for `CCC1CCC2(N1)C1CC3CC(C1)CC2C3` (stereo not drawn) (as salt: fumarate) [Compound 347, 5-ethylspiro[pyrrolidine-2,2′-tricyclo[3.3.1.1^3,7]decane]] reads 191 to 193 °C (dec.).
As for `NC12CC3CC(CC(C3)C1)C2` [Amantadine (1), Amantadine, reference compound], the EC50 amounted to 2.8 µM in series [1] (Influenza A virus, H3N2, MDCK) and 0.34 µM in series [2] (Influenza A virus, H2N2, MDCK).
The like results for `CCCC1(N)C2CC3CC(C2)CC1C3` (stereo not drawn) [Compound 7] were, in that order, 23 µM and less than 0.24 µM.
Regarding `CCCCC1(N)C2CC3CC(C2)CC1C3` (stereo not drawn) [Compound 17, (1r,3r,5r,7r)-2-butyladamantan-2-amine], the EC50 is 4 µM in series [1] and 1.5 µM in series [2].
Take `CC(C)CC1(N)C2CC3CC(C2)CC1C3` (stereo not drawn) [Compound 18, (1r,3r,5r,7r)-2-isobutyladamantan-2-amine]: the EC50 in series [1] amounted to 13 µM; in series [2] it was 0.4 µM.
Taken in the same sequence, the figures for `NC1(c2ccccc2)C2CC3CC(C2)CC1C3` (stereo not drawn) [Compound 19, (1r,3r,5r,7r)-2-phenyladamantan-2-amine] were 8 µM and 0.2 µM.
The like results for `NC1(Cc2ccccc2)C2CC3CC(C2)CC1C3` (stereo not drawn) [Compound 20, (1r,3r,5r,7r)-2-benzyladamantan-2-amine] were, in that order, 18 µM and 0.2 µM.
Turning to `CCCCCCC1(N)C2CC3CC(C2)CC1C3` (stereo not drawn) [Compound 101, 2-n-hexyl-tricyclo[3.3.1.1^3,7]decan-2-amine], in the series with MDCK cells, the “microscopic evidence of cytotoxicity to MDCK cells” value was “No microscopic evidence of cytotoxicity”. Also, the EC50 was determined as 1.1 µM in series [1] (Influenza A virus, H3N2, MDCK) and 1.5 µM in series [2] (Influenza A virus, H2N2, MDCK).
As for `CC(C)(N)C12CC3CC(CC(C3)C1)C2` [Compound 259, 2-(adamantan-1-yl)propan-2-amine], the EC50 in series [1] (Influenza A virus, H3N2, MDCK) came to 3.4 µM; in series [2] (Influenza A virus, H2N2, MDCK), 1.1 µM.
Taken in the same sequence, the figures for `CC(N)C12CC3CC(CC(C3)C1)C2` (stereo not drawn) [Rimantadine (2), Rimantadine, reference compound] were 0.53 µM and 1.6 µM.
